From patent publication US20220119354A1, “DIAMINO-SUBSTITUTED PYRIDINES AND PYRIMIDINES AS HERBICIDES” (FMC Corporation, priority 2019, published 2022)

Experiments:
Assay type in all cases: in vivo
corn (Zea mays) = assay: Test A postemergence, corn; conditions: 0 to 100 scale; for Plant response rating, Corn: 125 g ai/ha, 0 no effect, 100 complete control; for Corn plant response rating: 500 g ai/ha, 0 is no effect, 100 is complete control
Method in brief: (§1)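 Visual injury scored against untreated controls about 10 d after treatment, scale 0 = no effect to 100 = complete control. Compounds, formulated with surfactant in a non-phytotoxic solvent, went on as directed soil spray preemergence or onto 2–10 cm, one- to two-leaf plants postemergence; loam–sand soil, greenhouse.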

[1] = test system: barnyardgrass (Echinochloa crus-galli); assay: Test B flooded paddy test, barnyardgrass; conditions: Flood, 250 g ai/ha, applied to paddy water, 2-leaf stage, visual evaluation after 13 to 15 d
Method in brief: (§2)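 Visual injury scores run from 0 (no effect) to 100 (complete control), assigned by comparison with controls 13 to 15 d after treatment. Treatment went into floodwater standing 3 cm over the soil of pots holding 2-leaf plants.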

[2] = test system: galium (catchweed bedstraw, Galium aparine); assay: Test A postemergence, galium; conditions: 0 to 100 scale; for Plant response rating, Galium: 125 g ai/ha, 0 no effect, 100 complete control; for Galium plant response rating: 500 g ai/ha, 0 is no effect, 100 is complete control
Method in brief: as §1

[3] = test system: ryegrass, Italian (Lolium multiflorum); assay: Test A postemergence, Italian ryegrass; conditions: 0 to 100 scale; for Plant response rating, Ryegrass, Italian: 125 g ai/ha, 0 no effect, 100 complete control; for Ryegrass, Italian plant response rating: 500 g ai/ha, 0 is no effect, 100 is complete control
Method in brief: as §1

[4] = test system: blackgrass (Alopecurus myosuroides); assay: Test A postemergence, blackgrass; conditions: 0 to 100 scale; for Plant response rating, Blackgrass: 125 g ai/ha, 0 no effect, 100 complete control; for Blackgrass plant response rating: 500 g ai/ha, 0 is no effect, 100 is complete control
Method in brief: as §1

[5] = test system: sedge, umbrella (small-flower umbrella sedge, Cyperus difformis); assay: Test B flooded paddy test, umbrella sedge; conditions: Flood, 250 g ai/ha, applied to paddy water, 2-leaf stage, visual evaluation after 13 to 15 d
Method in brief: as §2

[6] = test system: ragweed (common ragweed, Ambrosia elatior); assay: Test A postemergence, ragweed; conditions: 0 to 100 scale; for Plant response rating, Ragweed: 125 g ai/ha, 0 no effect, 100 complete control; for Ragweed plant response rating: 500 g ai/ha, 0 is no effect, 100 is complete control
Method in brief: as §1

[7] = test system: foxtail, giant (Setaria faberii); assay: Test A postemergence, giant foxtail; conditions: 0 to 100 scale; for Plant response rating, Foxtail, Giant: 125 g ai/ha, 0 no effect, 100 complete control; for Foxtail, Giant plant response rating: 500 g ai/ha, 0 is no effect, 100 is complete control
Method in brief: as §1

[8] = test system: ducksalad (Heteranthera limosa); assay: Test B flooded paddy test, ducksalad; conditions: Flood, 250 g ai/ha, applied to paddy water, 2-leaf stage, visual evaluation after 13 to 15 d
Method in brief: as §2

[9] = test system: barnyardgrass (Echinochloa crus-galli); assay: Test A preemergence, barnyardgrass; conditions: 0 to 100 scale, 0 is no effect, 100 is complete control
Method in brief: as §1

[10] = test system: foxtail, giant (Setaria faberii); assay: Test A preemergence, giant foxtail; conditions: 0 to 100 scale, 0 is no effect, 100 is complete control
Method in brief: as §1

[11] = test system: barnyardgrass (Echinochloa crus-galli); assay: Test A postemergence, barnyardgrass; conditions: 0 to 100 scale; for Plant response rating, Barnyardgrass: 125 g ai/ha, 0 no effect, 100 complete control; for Barnyardgrass plant response rating: 500 g ai/ha, 0 is no effect, 100 is complete control
Method in brief: as §1

[12] = test system: pigweed (Amaranthus retroflexus); assay: Test A postemergence, pigweed; conditions: 0 to 100 scale; for Plant response rating, Pigweed: 125 g ai/ha, 0 no effect, 100 complete control; for Pigweed plant response rating: 500 g ai/ha, 0 is no effect, 100 is complete control
Method in brief: as §1

[13] = test system: ragweed (common ragweed, Ambrosia elatior); assay: Test A preemergence, ragweed; conditions: 0 to 100 scale, 0 is no effect, 100 is complete control
Method in brief: as §1

kochia (Kochia scoparia) [14] = assay: Test A preemergence, kochia; conditions: 0 to 100 scale, 0 is no effect, 100 is complete control
Method in brief: as §1

rice (Oryza sativa) = assay: Test B flooded paddy test, rice; conditions: Flood, 250 g ai/ha, applied to paddy water, 2-leaf stage, visual evaluation after 13 to 15 d
Method in brief: as §2

kochia (Kochia scoparia) [15] = assay: Test A postemergence, kochia; conditions: 0 to 100 scale; for Plant response rating, Kochia: 125 g ai/ha, 0 no effect, 100 complete control; for Kochia plant response rating: 500 g ai/ha, 0 is no effect, 100 is complete control
Method in brief: as §1

[16] = test system: ryegrass, Italian (Lolium multiflorum); assay: Test A preemergence, Italian ryegrass; conditions: 0 to 100 scale, 0 is no effect, 100 is complete control
Method in brief: as §1

[17] = test system: wheat (Triticum aestivum); assay: Test A postemergence, wheat; conditions: 0 to 100 scale; for Plant response rating, Wheat: 125 g ai/ha, 0 no effect, 100 complete control; for Wheat plant response rating: 500 g ai/ha, 0 is no effect, 100 is complete control
Method in brief: as §1

[18] = test system: pigweed (Amaranthus retroflexus); assay: Test A preemergence, pigweed; conditions: 0 to 100 scale, 0 is no effect, 100 is complete control
Method in brief: as §1

CC(Nc1ncc(C(F)(F)F)c(N)n1)c1coc2cc(F)ccc12 (racemic) [Compound 51]
20: Plant response rating, Foxtail, Giant [7]
40: Barnyardgrass plant response rating ([9]; 125 g ai/ha)
30: Plant response rating, Ryegrass, Italian [3] | Wheat plant response rating [17]
0: Plant response rating, Corn (corn (Zea mays)) | Plant response rating, Barnyardgrass (0 to 100 scale, 0 is no effect, 100 is complete control) [1] | Plant response rating, Blackgrass [4] | Plant response rating, Sedge, Umbrella (0 to 100 scale, 0 is no effect, 100 is complete control) [5] | Plant response rating, Ducksalad (0 to 100 scale, 0 is no effect, 100 is complete control) [8] | Plant response rating, Barnyardgrass [11] | Plant response rating, Rice (0 to 100 scale, 0 is no effect, 100 is complete control) (rice (Oryza sativa)) | Plant response rating, Wheat [17]
50: Ryegrass, Italian plant response rating [3] | Foxtail, Giant plant response rating [7] | Barnyardgrass plant response rating [11]
90: Galium plant response rating [2] | Plant response rating, Ragweed [6] | Foxtail, Giant plant response rating ([10]; 500 g ai/ha) | Kochia plant response rating (kochia (Kochia scoparia) [14]; 125 g ai/ha) | Kochia plant response rating (kochia (Kochia scoparia) [15]) | Pigweed plant response rating ([18]; 125 g ai/ha)
10: Corn plant response rating (corn (Zea mays)) | Blackgrass plant response rating [4] | Foxtail, Giant plant response rating ([10]; 125 g ai/ha)
60: Ryegrass, Italian plant response rating ([16]; 125 g ai/ha)
80: Plant response rating, Kochia (kochia (Kochia scoparia) [15]) | Ryegrass, Italian plant response rating ([16]; 500 g ai/ha)
70: Plant response rating, Galium [2]
100: Ragweed plant response rating [6] | Barnyardgrass plant response rating ([9]; 500 g ai/ha) | Plant response rating, Pigweed [12] | Pigweed plant response rating [12] | Ragweed plant response rating ([13]; 125 g ai/ha) | Ragweed plant response rating ([13]; 500 g ai/ha) | Kochia plant response rating (kochia (Kochia scoparia) [14]; 500 g ai/ha) | Pigweed plant response rating ([18]; 500 g ai/ha)

CCC(Nc1ncc(C(F)(F)F)c(N)n1)c1coc2ccccc12 (racemic) [Compound 53]
10: Plant response rating, Foxtail, Giant [7]
100: Pigweed plant response rating [12] | Ragweed plant response rating ([13]; 125 g ai/ha)
0: Plant response rating, Corn (corn (Zea mays)) | Corn plant response rating (corn (Zea mays)) | Plant response rating, Barnyardgrass (0 to 100 scale, 0 is no effect, 100 is complete control) [1] | Plant response rating, Blackgrass [4] | Blackgrass plant response rating [4] | Plant response rating, Sedge, Umbrella (0 to 100 scale, 0 is no effect, 100 is complete control) [5] | Plant response rating, Ducksalad (0 to 100 scale, 0 is no effect, 100 is complete control) [8] | Barnyardgrass plant response rating ([9]; 125 g ai/ha) | Plant response rating, Barnyardgrass [11] | Plant response rating, Rice (0 to 100 scale, 0 is no effect, 100 is complete control) (rice (Oryza sativa)) | Plant response rating, Wheat [17] | Wheat plant response rating [17]
80: Galium plant response rating [2] | Ragweed plant response rating [6] | Barnyardgrass plant response rating ([9]; 500 g ai/ha) | Pigweed plant response rating ([18]; 125 g ai/ha)
20: Plant response rating, Ryegrass, Italian [3] | Plant response rating, Ragweed [6] | Ryegrass, Italian plant response rating ([16]; 125 g ai/ha) | Ryegrass, Italian plant response rating ([16]; 500 g ai/ha)
30: Plant response rating, Galium [2] | Foxtail, Giant plant response rating [7] | Barnyardgrass plant response rating [11]
60: Ryegrass, Italian plant response rating [3] | Plant response rating, Pigweed [12] | Kochia plant response rating (kochia (Kochia scoparia) [14]; 125 g ai/ha)
90: Foxtail, Giant plant response rating ([10]; 125 g ai/ha) | Foxtail, Giant plant response rating ([10]; 500 g ai/ha) | Ragweed plant response rating ([13]; 500 g ai/ha) | Kochia plant response rating (kochia (Kochia scoparia) [14]; 500 g ai/ha) | Kochia plant response rating (kochia (Kochia scoparia) [15]) | Pigweed plant response rating ([18]; 500 g ai/ha)
50: Plant response rating, Kochia (kochia (Kochia scoparia) [15])
